# “And” between values parts separate entries of the source, which are not always exact repeats. Equal entries are not always repeated.
# How the values were obtained:
# [1] = target: mGluR2 (Mus musculus, UniProt Q14BI2, A548F); assay: Single-molecule FRET (SiMPull) of azi-CRD: population histograms and state occupancy; settings: for smFRET Histogram, Mean: N 3; for Mean occupancy, state 1 (inactive, FRET 0.24) / Mean occupancy, state 2 (intermediate 1, FRET 0.38) / Mean occupancy, state 3 (intermediate 2, FRET 0.70) / Mean occupancy, state 4 (active, FRET 0.87): azi-CRD, 5 μM modulator, fraction of total area;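 as to all read-outs here: Cy3/Cy5-labelled receptor from HEK293T cell lysate captured on anti-FLAG surfaces, apparent FRET efficiency computed from donor and acceptor intensities with crosstalk correction, pooled into population histograms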
# [2] = target: mGluR2 (Mus musculus, UniProt Q14BI2); assay: Functional calcium imaging, SNAP-mGluR2 (no FLAG-tag) with chimeric G protein Gqo5 in HEK293T cells; type: cell-based; design: Full length mGluR2 construct with an amber codon (TAG) mutation of amino acid A548 (azi-CRD) or N-terminal SNAP-tag (SNAP-mGluR2); host or cells: HEK293T; settings: for Intracellular Ca2+ Response (normalized to 1mM glutamate), Mean: Glutamate + 15nM MNI-137
# Chain of mGluR2 (Mus musculus, UniProt Q14BI2) (Q14BI2 19-872): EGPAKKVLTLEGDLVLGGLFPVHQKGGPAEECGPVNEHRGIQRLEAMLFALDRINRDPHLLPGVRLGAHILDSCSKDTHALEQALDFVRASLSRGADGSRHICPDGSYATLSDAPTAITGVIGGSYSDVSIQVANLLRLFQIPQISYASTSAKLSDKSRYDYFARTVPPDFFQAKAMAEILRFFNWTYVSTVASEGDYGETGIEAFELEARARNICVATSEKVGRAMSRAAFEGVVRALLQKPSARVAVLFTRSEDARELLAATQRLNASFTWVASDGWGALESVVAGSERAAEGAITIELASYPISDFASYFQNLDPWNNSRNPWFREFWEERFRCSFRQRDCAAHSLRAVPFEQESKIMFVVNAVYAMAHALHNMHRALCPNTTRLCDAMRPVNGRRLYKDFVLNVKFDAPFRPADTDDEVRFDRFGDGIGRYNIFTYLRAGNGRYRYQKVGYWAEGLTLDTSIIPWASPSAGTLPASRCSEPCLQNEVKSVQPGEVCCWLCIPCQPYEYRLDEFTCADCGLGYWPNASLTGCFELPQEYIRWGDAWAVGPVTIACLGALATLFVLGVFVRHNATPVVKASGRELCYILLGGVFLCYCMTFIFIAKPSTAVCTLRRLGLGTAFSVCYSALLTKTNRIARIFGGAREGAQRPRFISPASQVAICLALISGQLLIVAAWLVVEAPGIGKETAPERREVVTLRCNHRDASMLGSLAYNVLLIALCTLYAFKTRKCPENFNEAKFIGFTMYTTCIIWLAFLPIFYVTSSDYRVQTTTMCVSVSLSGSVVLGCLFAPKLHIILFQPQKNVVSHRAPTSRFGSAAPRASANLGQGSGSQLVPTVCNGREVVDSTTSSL
# Chain of mGluR2 (Mus musculus, UniProt Q14BI2, A548F) (Q14BI2 19-872 A548F): as the sequence (Q14BI2 19-872) above, with A530F counted along it
substance,measurement,setting,value
MNI-137,"smFRET Histogram, Mean","[1]; FRET 0.44, 15μM Glutamate + 5μM MNI-137",0.0478
same,"smFRET Histogram, Mean","[1]; FRET 0.46, 0μM Glutamate + GPT/Pyruvate + 5μM MNI-137",0.01122
same,"smFRET Histogram, Mean","[1]; FRET 0.46, 15μM Glutamate + 5μM MNI-137",0.03818
same,"smFRET Histogram, Mean","[1]; FRET 0.48, 0μM Glutamate + GPT/Pyruvate + 5μM MNI-137",0.00878
same,"smFRET Histogram, Mean","[1]; FRET 0.48, 15μM Glutamate + 5μM MNI-137",0.02974
same,"smFRET Histogram, Mean","[1]; FRET 0.5, 0μM Glutamate + GPT/Pyruvate + 5μM MNI-137",0.0069
same,"smFRET Histogram, Mean","[1]; FRET 0.5, 15μM Glutamate + 5μM MNI-137",0.02283
same,"smFRET Histogram, Mean","[1]; FRET 0.52, 0μM Glutamate + GPT/Pyruvate + 5μM MNI-137",0.00522
same,"smFRET Histogram, Mean","[1]; FRET 0.52, 15μM Glutamate + 5μM MNI-137",0.01756
same,"smFRET Histogram, Mean","[1]; FRET 0.54, 0μM Glutamate + GPT/Pyruvate + 5μM MNI-137",0.0038
same,"smFRET Histogram, Mean","[1]; FRET 0.54, 15μM Glutamate + 5μM MNI-137",0.01395
same,"smFRET Histogram, Mean","[1]; FRET 0.56, 0μM Glutamate + GPT/Pyruvate + 5μM MNI-137",0.00307
same,"smFRET Histogram, Mean","[1]; FRET 0.56, 15μM Glutamate + 5μM MNI-137",0.01177
same,"smFRET Histogram, Mean","[1]; FRET 0.58, 0μM Glutamate + GPT/Pyruvate + 5μM MNI-137",0.00238
same,"smFRET Histogram, Mean","[1]; FRET 0.58, 15μM Glutamate + 5μM MNI-137",0.0101
same,"smFRET Histogram, Mean","[1]; FRET 0.6, 0μM Glutamate + GPT/Pyruvate + 5μM MNI-137",0.00226
same,"smFRET Histogram, Mean","[1]; FRET 0.6, 15μM Glutamate + 5μM MNI-137",0.0089
same,"smFRET Histogram, Mean","[1]; FRET 0.62, 15μM Glutamate + 5μM MNI-137",0.0083
same,"smFRET Histogram, Mean","[1]; FRET 0.64, 0μM Glutamate + GPT/Pyruvate + 5μM MNI-137",0.00164
same,"smFRET Histogram, Mean","[1]; FRET 0.64, 15μM Glutamate + 5μM MNI-137",0.00824
same,"smFRET Histogram, Mean","[1]; FRET 0.66, 0μM Glutamate + GPT/Pyruvate + 5μM MNI-137",0.00119
same,"smFRET Histogram, Mean","[1]; FRET 0.66, 15μM Glutamate + 5μM MNI-137",0.00778
same,"smFRET Histogram, Mean","[1]; FRET 0.68, 0μM Glutamate + GPT/Pyruvate + 5μM MNI-137",0.00129
same,"smFRET Histogram, Mean","[1]; FRET 0.68, 15μM Glutamate + 5μM MNI-137",0.00775
same,"smFRET Histogram, Mean","[1]; FRET 0.7, 0μM Glutamate + GPT/Pyruvate + 5μM MNI-137",0.00106
same,"smFRET Histogram, Mean","[1]; FRET 0.7, 15μM Glutamate + 5μM MNI-137",0.00734
same,"smFRET Histogram, Mean","[1]; FRET 0.72, 0μM Glutamate + GPT/Pyruvate + 5μM MNI-137",9.06E-04
same,"smFRET Histogram, Mean","[1]; FRET 0.72, 15μM Glutamate + 5μM MNI-137",0.00691
same,"smFRET Histogram, Mean","[1]; FRET 0.74, 0μM Glutamate + GPT/Pyruvate + 5μM MNI-137",8.03E-04
same,"smFRET Histogram, Mean","[1]; FRET 0.74, 15μM Glutamate + 5μM MNI-137",0.00635
same,"smFRET Histogram, Mean","[1]; FRET 0.76, 0μM Glutamate + GPT/Pyruvate + 5μM MNI-137",9.58E-04
same,"smFRET Histogram, Mean","[1]; FRET 0.76, 15μM Glutamate + 5μM MNI-137",0.00599
same,"smFRET Histogram, Mean","[1]; FRET 0.78, 0μM Glutamate + GPT/Pyruvate + 5μM MNI-137",9.38E-04
same,"smFRET Histogram, Mean","[1]; FRET 0.78, 15μM Glutamate + 5μM MNI-137",0.00583
same,"smFRET Histogram, Mean","[1]; FRET 0.8, 0μM Glutamate + GPT/Pyruvate + 5μM MNI-137",8.49E-04
same,"smFRET Histogram, Mean","[1]; FRET 0.8, 15μM Glutamate + 5μM MNI-137",0.00559
same,"smFRET Histogram, Mean","[1]; FRET 0.82, 0μM Glutamate + GPT/Pyruvate + 5μM MNI-137",9.70E-04
same,"smFRET Histogram, Mean","[1]; FRET 0.82, 15μM Glutamate + 5μM MNI-137",0.00496
same,"smFRET Histogram, Mean","[1]; FRET 0.84, 0μM Glutamate + GPT/Pyruvate + 5μM MNI-137",0.00112
same,"smFRET Histogram, Mean","[1]; FRET 0.84, 15μM Glutamate + 5μM MNI-137",0.00504
same,"smFRET Histogram, Mean","[1]; FRET 0.86, 0μM Glutamate + GPT/Pyruvate + 5μM MNI-137",0.00114
same,"smFRET Histogram, Mean","[1]; FRET 0.86, 15μM Glutamate + 5μM MNI-137",0.00467
same,"smFRET Histogram, Mean","[1]; FRET 0.88, 0μM Glutamate + GPT/Pyruvate + 5μM MNI-137",0.0011
same,"smFRET Histogram, Mean","[1]; FRET 0.9, 0μM Glutamate + GPT/Pyruvate + 5μM MNI-137",0.0013
same,"smFRET Histogram, Mean","[1]; FRET 0.9, 15μM Glutamate + 5μM MNI-137",0.00455
same,"smFRET Histogram, Mean","[1]; FRET 0.92, 0μM Glutamate + GPT/Pyruvate + 5μM MNI-137",0.0011
same,"smFRET Histogram, Mean","[1]; FRET 0.92, 15μM Glutamate + 5μM MNI-137",0.00382
same,"smFRET Histogram, Mean","[1]; FRET 0.94, 0μM Glutamate + GPT/Pyruvate + 5μM MNI-137",8.72E-04
same,"smFRET Histogram, Mean","[1]; FRET 0.96, 0μM Glutamate + GPT/Pyruvate + 5μM MNI-137",0.001
same,"smFRET Histogram, Mean","[1]; FRET 0.98, 0μM Glutamate + GPT/Pyruvate + 5μM MNI-137",6.96E-04
same,"smFRET Histogram, Mean","[1]; FRET 1, 0μM Glutamate + GPT/Pyruvate + 5μM MNI-137",4.51E-04
same,"smFRET Histogram, Mean","[1]; FRET 1.02, 0μM Glutamate + GPT/Pyruvate + 5μM MNI-137",2.62E-04
same,"smFRET Histogram, Mean","[1]; FRET 1.04, 0μM Glutamate + GPT/Pyruvate + 5μM MNI-137",1.50E-04
same,"smFRET Histogram, Mean","[1]; FRET 1.06, 0μM Glutamate + GPT/Pyruvate + 5μM MNI-137",2.86E-05
same,"smFRET Histogram, Mean","[1]; FRET 1.08, 0μM Glutamate + GPT/Pyruvate + 5μM MNI-137",2.33E-05
same,"smFRET Histogram, Mean","[1]; FRET 1.1, 0μM Glutamate + GPT/Pyruvate + 5μM MNI-137",8.10E-05
same,"smFRET Histogram, Mean","[1]; FRET 1.12, 0μM Glutamate + GPT/Pyruvate + 5μM MNI-137",1.94E-05
same,"smFRET Histogram, Mean","[1]; FRET 1.14, 0μM Glutamate + GPT/Pyruvate + 5μM MNI-137",1.94E-05
same,"smFRET Histogram, Mean","[1]; FRET 1.16, 0μM Glutamate + GPT/Pyruvate + 5μM MNI-137",9.97E-06
same,"smFRET Histogram, Mean","[1]; FRET 1.18, 0μM Glutamate + GPT/Pyruvate + 5μM MNI-137",0
same,"smFRET Histogram, Mean","[1]; FRET 1.2, 0μM Glutamate + GPT/Pyruvate + 5μM MNI-137",0
same,"Mean occupancy, state 1 (inactive, FRET 0.24)",[1]; 0 μM glutamate,0.7486
same,"Mean occupancy, state 2 (intermediate 1, FRET 0.38)",[1]; 0 μM glutamate,0.222
same,"Mean occupancy, state 3 (intermediate 2, FRET 0.70)",[1]; 0 μM glutamate,0.02038
same,"Mean occupancy, state 4 (active, FRET 0.87)",[1]; 0 μM glutamate,0.00903
same,"Mean occupancy, state 1 (inactive, FRET 0.24)",[1]; 15 μM glutamate,0.1039
same,"Mean occupancy, state 2 (intermediate 1, FRET 0.38)",[1]; 15 μM glutamate,0.7494
same,"Mean occupancy, state 3 (intermediate 2, FRET 0.70)",[1]; 15 μM glutamate,0.1272
same,"Mean occupancy, state 4 (active, FRET 0.87)",[1]; 15 μM glutamate,0.01952
same,"Mean occupancy, state 1 (inactive, FRET 0.24)",[1]; 1000 μM glutamate,0.00207
same,"Mean occupancy, state 2 (intermediate 1, FRET 0.38)",[1]; 1000 μM glutamate,0.5597
same,"Mean occupancy, state 3 (intermediate 2, FRET 0.70)",[1]; 1000 μM glutamate,0.331
same,"Mean occupancy, state 4 (active, FRET 0.87)",[1]; 1000 μM glutamate,0.1072
same,Effect on receptor activation (calcium imaging) in the presence of glutamate,[2]; 10 μM NAM,block receptor activation
same,"Intracellular Ca2+ Response, % 1mM Glutamate","[2]; 1mM Glutamate + 15nM MNI-137, individual experiments",73.406% and 76.302% and 82.093%
same,Mean ΔEfficacy of glutamate,"[2]; Ca2+ response, 1 mM glutamate + 15 nM modulator, ([1 mM glutamate + modulator] - [1 mM glutamate]) × 100",-22.7329
same,"ΔEfficacy of glutamate, individual experiments","[2]; Ca2+ response, 1 mM glutamate + 15 nM modulator, single replicate",-23.6976 and -17.9069 and -26.5942
same,Mean ΔPotency of glutamate,"[2]; Ca2+ response, glutamate + 15 nM modulator, (([modulator + glutamate]EC50 – [glutamate]EC50)/[glutamate]EC50) × 100",30.7718
same,"ΔPotency of glutamate, individual experiments","[2]; Ca2+ response, glutamate + 15 nM modulator, single replicate",55.4467 and 26.9701 and 9.898
same,"Intracellular Ca2+ Response (normalized to 1mM glutamate), Mean",[2]; log[Glutamate] (M) -3,0.7727
same,"Intracellular Ca2+ Response (normalized to 1mM glutamate), Mean",[2]; log[Glutamate] (M) -3.60206,0.7226
same,"Intracellular Ca2+ Response (normalized to 1mM glutamate), Mean",[2]; log[Glutamate] (M) -4.1549,0.6149
same,"Intracellular Ca2+ Response (normalized to 1mM glutamate), Mean",[2]; log[Glutamate] (M) -4.52288,0.4711
same,"Intracellular Ca2+ Response (normalized to 1mM glutamate), Mean",[2]; log[Glutamate] (M) -5,0.2107
same,"Intracellular Ca2+ Response (normalized to 1mM glutamate), Mean",[2]; log[Glutamate] (M) -5.39794,0.08277
same,"Intracellular Ca2+ Response (normalized to 1mM glutamate), Mean",[2]; log[Glutamate] (M) -5.82391,0.01181
same,"Intracellular Ca2+ Response (normalized to 1mM glutamate), Mean",[2]; log[Glutamate] (M) -6.52288,0
same,"Intracellular Ca2+ Response (normalized to 1mM glutamate), Mean",[2]; log[Glutamate] (M) -7,0
